Consider four compounds from patent publication US5011836A, “Agents for the treatment of acute and chronic obstructive respiratory passage diseases” (Dr. Karl Thomae GmbH, priority 1988, dated 1991).

Molecules are shown by their SMILES. “Also recorded” adds a separate entry of the source.

Broadly, the IC50 is the concentration at which inhibition is half-maximal.

Test [1] concerns the target T1, muscarinic receptors, cortex (M1) (Rattus norvegicus, UniProt P08482).
T1 construct: After removing the heart, submandible and cerebral cortex; from tissue; host or cells: Sprague-Dawley rat cerebral cortex homogenate
T1 sequence (P08482 1-460): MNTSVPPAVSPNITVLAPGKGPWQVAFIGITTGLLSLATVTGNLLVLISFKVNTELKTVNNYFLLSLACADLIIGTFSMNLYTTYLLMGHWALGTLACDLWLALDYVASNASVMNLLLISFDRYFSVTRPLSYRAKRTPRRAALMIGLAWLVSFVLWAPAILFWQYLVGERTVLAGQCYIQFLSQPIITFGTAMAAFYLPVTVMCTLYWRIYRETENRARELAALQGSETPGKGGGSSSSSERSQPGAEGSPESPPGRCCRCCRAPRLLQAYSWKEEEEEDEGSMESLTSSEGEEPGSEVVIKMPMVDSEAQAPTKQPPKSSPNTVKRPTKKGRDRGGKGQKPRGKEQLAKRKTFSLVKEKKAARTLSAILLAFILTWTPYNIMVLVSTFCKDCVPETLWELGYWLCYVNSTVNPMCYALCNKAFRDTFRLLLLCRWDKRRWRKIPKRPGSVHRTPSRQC
Kind of test: Receptor binding test in vitro, 3H-pirenzepine, cerebral cortex (M1). The arrangement: species or system Sprague-Dawley rat. The conditions noted are these: for IC50: 1 nanomolar 3H-pirenzepine, rat cerebral cortex homogenate, 30° C., 45 minutes, pH 7.4, read-out: IC50 3H-PZ Cortex (M1); for M1-selectivity in receptor binding studies (in words): cortex M1 compared to heart and submandible. How it is done:
(§1) Sprague-Dawley rats having body weights of 180-220 g were used as organ donors. After removing the heart, submandible and cerebral cortex, all further steps were carried out in ice-cold Hepes-HCl buffer (pH 7.4; 100 m molar NaCl, 10 m molar MgCl2). The entire heart was comminuted using a pair of scissors. All organs were then homogenised in a Potter.
(§2) For the binding test, the organ homogenates were diluted in the following manner(ratio by volume):
(§3) The incubation of the organ homogenates was carried out at a defined concentration of the radioligand and a number of concentrations of the non-radioactive test substances in Eppendorf centrifuge tubes at 30° C. The incubation period was 45 minutes. 0.3 nanomolar ^3 H-N-methylscopolamine (^3 H-NMS, heart and submandible) or 1 nanomolar ^3 H-pirenzepine (^3 H-PZ, cerebrum) were used as the radioligand. The incubation was ended by addition of ice-cold buffer with subsequent vacuum filtration. The filter was washed with cold buffer and its radioactivity was determined. This represents the total of specific and non-specific binding of ^3 H-NMS or ^3 H-PZ. The proportion of non-specific binding was defined as that radioactivity which was bound in the presence of 1μ molar quinuclidinylbenzylate. Four-fold determinations were always carried out. The IC50 values of non-labelled test substances were determined graphically. They represent that concentration of the test substance at which the specific binding of ^3 H-NMS or ^3 H-PZ to the muscarinic receptors in the various organs was inhibited by 50%.

The test system of test [2] is effect of acetylcholine on bronchi. Kind of test: Inhibition of the effect of acetylcholine on the bronchi (respiratory passage resistance, Konzett-Rossler), anaesthetised guinea-pigs. Type of test: in vivo, guinea-pig. The settings on record: for ED50: Cavia porcellus, iv, 5 min, read-out: -log DE50 Bronchi; for selectivity of inhibition of acetylcholine-induced bronchoconstriction versus effects on heart and bladder (in words): bronchi compared to heart and bladder, guinea-pig. Here is the method: (§4) 5 minutes after administration of the test substance to anaesthetised guinea-pigs, 10 μg/kg of acetylcholine was injected intravenously and, at the same time, intraarterially. At the same time, the heart rate was recorded by extracorporeal derivation of the ECG, the respiratory passage resistance by Konzett-Rossler and the contraction of the exposed bladder directly. For the inhibition of the effect of acetylcholine on the organs examined, dosage-activity curves were recorded and -log ED50 values were determined therefrom.

The test system of test [3] is effect of acetylcholine on heart rate. Briefly: Inhibition of the effect of acetylcholine on the heart rate (ECG), anaesthetised guinea-pigs. Type of test: in vivo. The conditions noted are these: Cavia porcellus, iv, 5 min, anaesthetised guinea-pig, 10 μg/kg acetylcholine i.v. and intraarterially 5 minutes after test substance, read-out: -log DE50 Heart (converted). How it is done:
as §4

Test [4] concerns the target T2, muscarinic receptors, heart (M2) (Rattus norvegicus, UniProt P10980).
T2 construct: After removing the heart, submandible and cerebral cortex; from tissue; host or cells: Sprague-Dawley rat entire heart homogenate
T2 sequence (P10980 1-466): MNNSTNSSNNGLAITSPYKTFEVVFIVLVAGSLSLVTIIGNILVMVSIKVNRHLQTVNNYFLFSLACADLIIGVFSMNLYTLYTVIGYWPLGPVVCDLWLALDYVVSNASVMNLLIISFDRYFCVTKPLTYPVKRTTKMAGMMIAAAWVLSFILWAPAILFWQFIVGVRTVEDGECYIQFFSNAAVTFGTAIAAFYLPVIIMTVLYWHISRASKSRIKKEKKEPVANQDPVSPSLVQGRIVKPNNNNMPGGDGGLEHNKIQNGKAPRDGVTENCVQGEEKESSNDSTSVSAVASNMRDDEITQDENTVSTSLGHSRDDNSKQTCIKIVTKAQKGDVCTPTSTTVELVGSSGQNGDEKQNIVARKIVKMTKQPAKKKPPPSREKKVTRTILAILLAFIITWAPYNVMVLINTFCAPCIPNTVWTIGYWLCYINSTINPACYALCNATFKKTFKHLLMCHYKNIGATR
Briefly: Receptor binding test in vitro, 3H-N-methylscopolamine, heart (M2). Details: species or system Sprague-Dawley rat. Here is the method: as §1, §2, §3

The subject of test [5] is effect of acetylcholine on bladder. Kind of test: Inhibition of the effect of acetylcholine on the bladder (contraction of the exposed bladder), anaesthetised guinea-pigs. Type of test: in vivo. The conditions noted are these: Cavia porcellus, iv, 5 min; anaesthetised guinea-pig; 10 μg/kg acetylcholine i.v. and intraarterially 5 minutes after test substance; read-out: -log DE50 Bladder (converted). How it is done: as §4

For test [6], the target named is T3, muscarinic receptors, submandible (M3) (Rattus norvegicus, UniProt P08483).
T3 construct: After removing the heart, submandible and cerebral cortex; from tissue; host or cells: Sprague-Dawley rat submandibular gland ('submandible') homogenate
Kind of test: Receptor binding test in vitro, 3H-N-methylscopolamine, submandible (M3). The arrangement: species or system Sprague-Dawley rat. The settings on record: 0.3 nanomolar 3H-N-methylscopolamine, rat submandible homogenate, 30° C., 45 minutes, pH 7.4; read-out: IC50 3H-NMS Submandible (M3). How it is done: as §1, §2, §3

T3 sequence (P08483 whole entry): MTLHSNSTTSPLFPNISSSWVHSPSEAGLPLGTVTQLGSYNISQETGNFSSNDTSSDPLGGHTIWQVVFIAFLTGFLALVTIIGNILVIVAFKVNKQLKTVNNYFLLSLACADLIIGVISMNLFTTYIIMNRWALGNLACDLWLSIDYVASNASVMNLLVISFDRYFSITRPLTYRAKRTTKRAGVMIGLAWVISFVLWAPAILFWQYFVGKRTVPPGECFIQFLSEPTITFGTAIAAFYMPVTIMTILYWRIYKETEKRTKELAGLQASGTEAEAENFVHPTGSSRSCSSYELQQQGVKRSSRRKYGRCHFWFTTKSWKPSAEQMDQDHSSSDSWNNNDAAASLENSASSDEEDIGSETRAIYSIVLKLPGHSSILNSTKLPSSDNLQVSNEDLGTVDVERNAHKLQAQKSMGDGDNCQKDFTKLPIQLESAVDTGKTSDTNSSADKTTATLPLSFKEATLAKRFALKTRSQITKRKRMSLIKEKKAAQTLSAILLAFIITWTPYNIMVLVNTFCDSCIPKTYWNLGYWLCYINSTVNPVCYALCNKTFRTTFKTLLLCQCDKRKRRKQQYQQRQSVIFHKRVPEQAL

Regarding `CN1CCC(NC(=O)C2c3ccccc3NC(=O)c3ccccc32)CC1` (racemic) [Substance A, 5,11-dihydro-11-[[(1-methyl-4-piperidinyl)amino]carbonyl]-6H-dibenz[b,e]azepin-6-one], the IC50 was determined as 6 nM in test [1], 400 nM in test [4] and 70 nM in test [6]. The “M1-selectivity in receptor binding studies (in words)” value (shortened to “M1-selectivity”) in test [1] was “marked M1 -selectivity; also recorded: lower IC50 values for the cortex M1 receptor compared to muscarinic receptors in preparations of the heart and submandible; also recorded: M1 -selectivity in in vitro receptor binding studies”. Also, the ED50 in test [2] was 0.055 µmol/kg; in test [3], 0.955 µmol/kg; in test [5], 0.537 µmol/kg. Besides, the “selectivity of inhibition of acetylcholine-induced bronchoconstriction versus effects on heart and bladder (in words)” value (from here on “selectivity of inhibition … (in words)”) in test [2] is “marked selectivity for the inhibition of the bronchoconstriction; also recorded: even at dosages at which no effects on the heart and bladder are observed; also recorded: more strongly inhibit the cholinergically induced bronchoconstriction in functional tests than frequency effects on the heart or the bladder contraction”.
Turning to `CN1CCC(CC(=O)C2c3ccccc3NC(=O)c3ccccc32)CC1` (racemic) [Substance B, 5,11-dihydro-11-[(1-methyl-4-piperidinyl)acetyl]-6H-dibenz[b,e]azepin-6-one], the figures for the 50% inhibitory concentration (IC50) in test [1], in test [4] and in test [6] were 2.5 nM, 42 nM and 13 nM, respectively. For the same compound, the “M1-selectivity” value in test [1] is “marked M1 -selectivity; also recorded: lower IC50 values for the cortex M1 receptor compared to muscarinic receptors in preparations of the heart and submandible; also recorded: M1 -selectivity in in vitro receptor binding studies”. The ED50 was 0.182 µmol/kg in test [2], 0.851 µmol/kg in test [3] and 0.813 µmol/kg in test [5]. In test [2], the “selectivity of inhibition … (in words)” value was “marked selectivity for the inhibition of the bronchoconstriction; also recorded: even at dosages at which no effects on the heart and bladder are observed; also recorded: more strongly inhibit the cholinergically induced bronchoconstriction in functional tests than frequency effects on the heart or the bladder contraction”.
As for `CN1CCN(CC(=O)C2c3ccccc3NC(=O)c3ccccc32)CC1` (racemic) [Substance C, 5,11-dihydro-11-[(4-methyl-1-piperazinyl)acetyl]-6H-dibenz[b,e]azepin-6-one], the IC50 in test [1] was 8 nM; in test [4], 800 nM; in test [6], 100 nM. The “M1-selectivity” value in test [1] was “marked M1 -selectivity; also recorded: lower IC50 values for the cortex M1 receptor compared to muscarinic receptors in preparations of the heart and submandible; also recorded: M1 -selectivity in in vitro receptor binding studies”. Further, the values for the ED50 in test [2], in test [3] and in test [5] were 0.275 µmol/kg, 1.78 µmol/kg and 5.37 µmol/kg, respectively. For the same compound, the “selectivity of inhibition … (in words)” value in test [2] was “marked selectivity for the inhibition of the bronchoconstriction; also recorded: even at dosages at which no effects on the heart and bladder are observed; also recorded: more strongly inhibit the cholinergically induced bronchoconstriction in functional tests than frequency effects on the heart or the bladder contraction”.
As for `CN1CCC(NC(=O)C2c3ccccc3NC(=O)c3ccccc32)CC1` (single isomer, unassigned; (+)) [Substance D, (+)-5,11-dihydro-11-[[(1-methyl-4-piperidinyl)amino]carbonyl]-6H-dibenz[b,e]azepin-6-one], the IC50 is 3 nM in test [1], 300 nM in test [4] and 50 nM in test [6]. Besides, in test [1], the “M1-selectivity” value is “marked M1 -selectivity; also recorded: lower IC50 values for the cortex M1 receptor compared to muscarinic receptors in preparations of the heart and submandible; also recorded: M1 -selectivity in in vitro receptor binding studies”. Also, the ED50 in test [2] was 0.0331 µmol/kg; in test [3] it was 0.407 µmol/kg; in test [5], 0.309 µmol/kg. The “selectivity of inhibition … (in words)” value in test [2] is “even at dosages at which no effects on the heart and bladder are observed; also recorded: more strongly inhibit the cholinergically induced bronchoconstriction in functional tests than frequency effects on the heart or the bladder contraction”.
